Data from ChEMBL document CHEMBL1201862, “PubChem BioAssay data set” (2004).
The source made the active and inactive calls.

Tests used:
[1] = molecular target: Glyceraldehyde-3-phosphate dehydrogenase (Homo sapiens, UniProt P04406)
[2] = molecular target: T1, Bcl-2-related protein A1 (Mus musculus, UniProt Q07440); assay: Bfl-1 inhibitors blocking BH3 peptide binding, confirmation, biochemical, TR-FRET, mouse Bfl-1 (AID 621);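 further: TR-FRET binding of GST-Bfl-1 to FITC-labelled Bid peptide via terbium antibody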
T1 sequence (Q07440 whole entry): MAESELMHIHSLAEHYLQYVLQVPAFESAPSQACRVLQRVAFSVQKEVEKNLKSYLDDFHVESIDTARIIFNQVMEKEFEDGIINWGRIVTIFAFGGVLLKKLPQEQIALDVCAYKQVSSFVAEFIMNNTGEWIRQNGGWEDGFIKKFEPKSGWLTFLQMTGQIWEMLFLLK

[3] = molecular target: T1, Bcl-2-related protein A1; assay: Bfl-1 binding inhibitors, SAR follow-up, biochemical, fluorescence polarization (AID 1070)
[4] = molecular target: T1, Bcl-2-related protein A1; assay type: functional
[5] = molecular target: T2, Ubiquitin-conjugating enzyme E2 N (Homo sapiens, UniProt P61088); assay type: functional
T2 sequence (P61088 whole entry): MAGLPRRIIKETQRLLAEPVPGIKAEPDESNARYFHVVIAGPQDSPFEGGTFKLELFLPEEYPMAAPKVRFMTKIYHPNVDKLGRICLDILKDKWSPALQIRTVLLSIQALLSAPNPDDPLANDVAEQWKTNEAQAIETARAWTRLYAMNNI

[6] = molecular target: T2, Ubiquitin-conjugating enzyme E2 N; assay type: functional; remark: listed apart in the source
[7] = molecular target: T3, SUMO-activating enzyme (Homo sapiens, UniProt Q9UBT2); assay: SUMOylation inhibitor hit validation, confirmation, SUMOylation inhibitor project, biochemical, AlphaScreen (AID 2018); assay type: functional
T3 sequence (Q9UBE0 whole entry): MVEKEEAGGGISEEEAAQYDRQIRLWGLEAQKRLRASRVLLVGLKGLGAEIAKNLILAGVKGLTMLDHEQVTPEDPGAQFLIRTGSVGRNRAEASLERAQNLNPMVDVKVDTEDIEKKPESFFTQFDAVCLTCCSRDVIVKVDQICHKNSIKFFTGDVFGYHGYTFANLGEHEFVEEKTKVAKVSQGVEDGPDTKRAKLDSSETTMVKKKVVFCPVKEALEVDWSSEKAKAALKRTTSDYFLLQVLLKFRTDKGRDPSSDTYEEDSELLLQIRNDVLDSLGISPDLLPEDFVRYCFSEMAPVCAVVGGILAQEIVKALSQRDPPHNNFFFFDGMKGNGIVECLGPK
T3 sequence (Q9UBT2 whole entry): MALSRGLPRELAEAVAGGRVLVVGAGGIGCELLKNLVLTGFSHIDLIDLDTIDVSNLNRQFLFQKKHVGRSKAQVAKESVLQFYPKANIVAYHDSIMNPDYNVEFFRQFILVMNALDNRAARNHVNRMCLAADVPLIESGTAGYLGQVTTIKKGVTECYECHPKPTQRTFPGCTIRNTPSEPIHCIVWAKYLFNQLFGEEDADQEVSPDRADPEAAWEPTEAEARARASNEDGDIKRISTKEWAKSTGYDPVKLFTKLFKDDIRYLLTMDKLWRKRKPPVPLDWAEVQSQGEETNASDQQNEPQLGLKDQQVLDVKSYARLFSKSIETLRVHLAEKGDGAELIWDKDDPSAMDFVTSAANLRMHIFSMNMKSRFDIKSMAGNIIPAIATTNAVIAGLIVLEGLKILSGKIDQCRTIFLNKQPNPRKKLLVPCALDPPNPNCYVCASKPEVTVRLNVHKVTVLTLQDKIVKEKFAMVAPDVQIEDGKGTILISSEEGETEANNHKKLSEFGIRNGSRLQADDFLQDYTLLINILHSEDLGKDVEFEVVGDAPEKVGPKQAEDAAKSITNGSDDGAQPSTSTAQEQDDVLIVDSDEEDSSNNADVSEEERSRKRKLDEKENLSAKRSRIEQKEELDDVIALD

[8] = molecular target: T3, SUMO-activating enzyme; assay: inhibitors of in vitro SUMOylation cascade, primary screen, biochemical, HTRF, uHTS (AID 2006); assay type: protein-complex assay
[9] = molecular target: T4, Replicative DNA helicase DnaB (Mycobacterium tuberculosis, UniProt P9WMR3); assay: DnaB intein splicing inhibitors, dose response, biochemical, cell-free fluorescence (AID 449749); assay type: functional
T4 sequence (P9WMR3 whole entry): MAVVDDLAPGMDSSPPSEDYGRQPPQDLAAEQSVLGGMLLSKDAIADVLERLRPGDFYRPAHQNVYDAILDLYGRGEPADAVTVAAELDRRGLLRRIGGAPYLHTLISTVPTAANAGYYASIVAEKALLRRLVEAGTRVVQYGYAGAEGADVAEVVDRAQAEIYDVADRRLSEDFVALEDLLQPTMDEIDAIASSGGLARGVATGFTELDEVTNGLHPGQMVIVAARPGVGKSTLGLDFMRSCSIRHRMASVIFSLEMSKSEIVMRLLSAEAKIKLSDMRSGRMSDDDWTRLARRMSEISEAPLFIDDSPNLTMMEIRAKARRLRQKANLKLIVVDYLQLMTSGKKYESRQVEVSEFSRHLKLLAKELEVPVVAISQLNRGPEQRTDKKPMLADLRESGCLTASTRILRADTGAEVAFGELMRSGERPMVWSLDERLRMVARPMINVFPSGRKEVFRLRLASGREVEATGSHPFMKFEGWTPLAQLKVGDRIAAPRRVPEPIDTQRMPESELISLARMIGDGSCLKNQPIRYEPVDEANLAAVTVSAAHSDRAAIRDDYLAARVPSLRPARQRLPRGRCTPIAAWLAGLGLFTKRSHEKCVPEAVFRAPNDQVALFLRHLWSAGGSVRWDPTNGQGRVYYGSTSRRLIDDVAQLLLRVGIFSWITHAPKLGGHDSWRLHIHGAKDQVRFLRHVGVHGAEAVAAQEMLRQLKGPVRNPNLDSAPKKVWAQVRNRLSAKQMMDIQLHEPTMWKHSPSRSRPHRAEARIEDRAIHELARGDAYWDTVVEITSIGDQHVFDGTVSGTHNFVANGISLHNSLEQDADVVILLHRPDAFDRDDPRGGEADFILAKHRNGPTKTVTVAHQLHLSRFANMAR

[10] = molecular target: T5, Protein RecA (Mycobacterium tuberculosis, UniProt P9WHJ3); assay: Fluorescence Cell-Free Homogeneous Dose Retest to Identify Inhibitors of RecA-Intein Splicing Activity. [Related pubchem assays (depositor defined):AID2097, AID2223, AID489010, AID492950]; assay type: functional
T5 sequence (P9WHJ3 whole entry): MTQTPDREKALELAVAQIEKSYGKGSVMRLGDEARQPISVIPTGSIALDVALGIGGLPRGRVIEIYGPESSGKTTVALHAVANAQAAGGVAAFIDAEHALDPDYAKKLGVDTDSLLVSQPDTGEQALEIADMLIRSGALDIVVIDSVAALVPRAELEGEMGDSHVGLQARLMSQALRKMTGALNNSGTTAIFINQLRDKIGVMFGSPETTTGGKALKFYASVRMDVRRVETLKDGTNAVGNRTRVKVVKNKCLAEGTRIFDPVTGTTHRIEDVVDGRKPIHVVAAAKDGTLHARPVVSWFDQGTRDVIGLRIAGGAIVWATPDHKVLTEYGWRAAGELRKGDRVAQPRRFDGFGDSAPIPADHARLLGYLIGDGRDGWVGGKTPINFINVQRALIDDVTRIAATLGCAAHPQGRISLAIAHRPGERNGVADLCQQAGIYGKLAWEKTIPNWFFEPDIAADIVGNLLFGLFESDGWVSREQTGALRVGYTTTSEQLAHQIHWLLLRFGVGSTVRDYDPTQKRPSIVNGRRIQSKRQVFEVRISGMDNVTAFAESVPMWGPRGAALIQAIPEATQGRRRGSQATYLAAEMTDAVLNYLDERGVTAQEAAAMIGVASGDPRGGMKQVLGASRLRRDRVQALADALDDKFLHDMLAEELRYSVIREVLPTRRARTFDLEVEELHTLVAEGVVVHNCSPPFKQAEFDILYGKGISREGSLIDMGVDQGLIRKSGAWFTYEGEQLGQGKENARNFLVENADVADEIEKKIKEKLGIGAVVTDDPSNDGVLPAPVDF

[11] = P. falciparum 3D7-ScDHODH growth inhibitors, dose response, SYBR Green, dry powder samples (AID 1159570); assay type: functional, cell-based;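 further: parasite growth measured after 72 hours of compound exposure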
[12] = HepG2 cell cytotoxicity, dose response, cytotoxicity control, plate reader, dry powder samples (AID 1159569); assay type: functional, cell-based;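 further: inhibitor potency with signal falling toward the positive control level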
[13] = P. falciparum Dd2 growth inhibitors, dose response, SYBR Green, cherry-picked samples (AID 1159567); assay type: functional, cell-based
[14] = P. falciparum Dd2 growth inhibitors, dose response, SYBR Green, dry powder samples (AID 1159566); assay type: functional, cell-based;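 further: potency for growth inhibition with lower SYBR green DNA signal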
[15] = P. falciparum ATP4 D1247Y mutant growth inhibitors, dose response, NITD609-resistant line, SYBR Green, dry powder (AID 1159571); assay type: functional, cell-based;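 further: parasites synchronized at ring stage by sorbitol before testing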
[16] = inhibitors of Bluetongue virus cytopathic effect, confirmation, arbovirus, BSR cells (AID 1250); assay type: functional;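 further: protection from viral cytopathic effect measured as cell viability by ATP luminescence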
[17] = Vero cell cytotoxicity, dose response, cytotoxicity control for Vif-APOBEC3G degradation inhibitor project, Vero cells (AID 1117358); assay type: functional; settings: Human immunodeficiency virus 1, Vero
[18] = Luminescence Cell-Based Dose Response to Identify Activators of 5'UTR Stem-Loop Driven Prion Protein mRNA Translation in H4-C Neuroglioblastoma Cells. [Related pubchem assays: 1829 (Project Summary), 1814 (Primary HTS)]; assay type: functional
[19] = system: H4; assay: Luminescence Cell-Based Dose Response HTS to Identify Activators of 5'UTR Stem-Loop Driven Prion Protein mRNA Translation in H4 Neuroglioblastoma Cells. [Related pubchem assays: 1829 (Project Summary), 1814 (Primary HTS)]; assay type: functional; settings: Homo sapiens
[20] = Luminescence Cell-Based Dose Response to Identify Activators of Luciferase Translation or Activity in H4-C Neuroglioblastoma Cells. [Related pubchem assays: 1829 (Project Summary), 1814 (Primary HTS)]; assay type: functional
[21] = Luminescence Cell-Based Dose Confirmation to Identify Activators of 5'UTR Stem-Loop Driven Alpha-Synuclein mRNA Translation in H4 Neuroglioblastoma Cells. [Related pubchem assays: 1829 (Project Summary), 1814 (Primary HTS)]; assay type: functional

Glyceraldehyde-3-phosphate dehydrogenase, sequence (P04406 whole entry): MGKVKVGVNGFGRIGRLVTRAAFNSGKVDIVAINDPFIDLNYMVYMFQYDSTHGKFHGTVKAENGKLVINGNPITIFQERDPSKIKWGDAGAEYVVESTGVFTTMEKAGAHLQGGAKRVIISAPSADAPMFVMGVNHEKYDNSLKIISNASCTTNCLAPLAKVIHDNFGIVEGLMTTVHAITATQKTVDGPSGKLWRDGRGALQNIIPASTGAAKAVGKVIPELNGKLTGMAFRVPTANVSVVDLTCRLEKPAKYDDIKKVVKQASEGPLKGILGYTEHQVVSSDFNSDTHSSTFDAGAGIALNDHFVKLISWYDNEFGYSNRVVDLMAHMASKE

In the case of `COc1cccc(N2C(=O)C(Cl)=C(N3CCN(CCOCCO)CC3)C2=O)c1`, the IC50 [1] is reported as > 100 µM (not active), the IC50 [2] is reported as 9.11 µM (active) and the IC50 [3] is reported as 8.85 µM (active).
With `O=C1c2cccc3cccc(c23)N1Cc1cccc(F)c1` the IC50 [4] was > 20 µM (inactive), the IC50 [5] was 16.6 µM (active) and the IC50 [6] was 6.16 µM (active).
For `Cc1nn(-c2ccc(Cl)cc2)c(O)c1C(c1cccc(O)c1)c1c(C)[nH]n(-c2ccc(Cl)cc2)c1=O` (configuration not stated), the IC50 [7] was 4.08 µM (active), the IC50 [8] was 47.8 µM (active) and the AC50 [9] was 1.36 µM (active). For the same compound, the EC50 [10] was 0.897 µM (active).
In the case of `COc1ccc2c3c(n(C)c2c1)[C@H](CO)N(CC1CC1)CC31CN(C(=O)c2ccc3c(c2)OCO3)C1`, the AC50 [11] is reported as 1.24 µM (active), the AC50 [12] is reported as > 100 µM (inactive) and the AC50 [13] is reported as 1.85 µM (active). The AC50 [14] was 1.26 µM (active) and the AC50 [15] was 1.28 µM (active).
For `Cc1ccc(-c2cc(C(F)(F)F)c(C#N)c(O)n2)cc1`, the IC50 [16] was 32.6 µM (active).
In the case of `COc1ccc2c3c([nH]c2c1)[C@H](CO)N(Cc1ccncc1)CC31CN(Cc2ccc(-c3ccccn3)cc2)C1`, the AC50 [11] is reported as 3.42 µM (active), the AC50 [12] is reported as 43.3 µM (active) and the AC50 [13] is reported as 2.36 µM (active). The AC50 [14] was 2.97 µM (active) and the AC50 [15] was 2.8 µM (active).
In the case of `CS(=O)(=O)N(CC(O)Cn1c2ccccc2c2ccccc21)c1ccccc1` (configuration not stated), the IC50 [16] is reported as 33 µM (active).
With `O=C(NCc1ccccc1)/C(=C/c1ccc(OC(F)F)cc1)c1ccccc1` the CC50 [17] was 34.5 µM (active).
With `CCCCOc1[nH]cnc2c3cc(OC)ccc3nc1-2` the EC50 [18] was 0.274 µM (active), the EC50 [19] was < 0.1 µM (active) and the EC50 [20] was 0.403 µM (active). For the same compound, the EC50 [21] was 0.239 µM (active).
